Reference: patent US20160039802A1, “3-PYRIMIDIN-4-YL-OXAZOLIDIN-2-ONES AS INHIBITORS OF MUTANT IDH” (NOVARTIS AG, priority 2013, published 2016)

Columns and labels:
[1] = target: T1, Mutant IDH1 R132H (Homo sapiens, UniProt O75874, R132H); assay: Mutant IDH1 biochemical assay: LC-MS detection of 2-HG; settings: mIDH R132H […], 5 uM NADPH, 100 uM alpha-KG, 45 minutes incubation; range where run multiple times; further: mIDH R132H 0.25 nM, 5 µM NADPH
T1 construct: His6 with PreScission site (N, cleaved yes); made in house; host or cells: E. coli Rosetta 2(DE3)
From the text: Mutant IDH1 biochemical Sssay: LC-MS Detection of 2-HG.

[2] = target: T2, IDH1 (R132H) mutant (Homo sapiens, UniProt O75874, R132H); assay: Fluorescence biochemical assay (NADPH oxidation); settings: mIDH R132H 10 nM, 10 μM NADPH, 100 μM α-KG; range where run multiple times
T2 construct: His6 with PreScission site (N, cleaved yes); made in house; host or cells: E. coli Rosetta 2(DE3)
Method: The IDH1 (R132H) mutant catalyzes the reduced form of NADP+ (NADPH) and α-ketoglutarate (α-KG) to form nicotinamide adenine dinucleotide phosphate (NADP+) and R(−)-2-hydroxyglutarate (2HG). […] Reactions were monitored using the Perkin-Elmer Envision, Model 2101. […] The final reaction mixture contained 2.5% DMSO and test compounds with concentrations ranging 0.0000008-25 μM. The IDH1 (R132H) enzyme was used at a final concentration of 10 nM. Curve fitting for dose response […] determinations was done in the Helios module of the software package DAVID. The 4-parameter logistic model was used: y=min+((max−min)/1+(x/IC50)^shape)

T2 sequence (O75874 whole entry R132H): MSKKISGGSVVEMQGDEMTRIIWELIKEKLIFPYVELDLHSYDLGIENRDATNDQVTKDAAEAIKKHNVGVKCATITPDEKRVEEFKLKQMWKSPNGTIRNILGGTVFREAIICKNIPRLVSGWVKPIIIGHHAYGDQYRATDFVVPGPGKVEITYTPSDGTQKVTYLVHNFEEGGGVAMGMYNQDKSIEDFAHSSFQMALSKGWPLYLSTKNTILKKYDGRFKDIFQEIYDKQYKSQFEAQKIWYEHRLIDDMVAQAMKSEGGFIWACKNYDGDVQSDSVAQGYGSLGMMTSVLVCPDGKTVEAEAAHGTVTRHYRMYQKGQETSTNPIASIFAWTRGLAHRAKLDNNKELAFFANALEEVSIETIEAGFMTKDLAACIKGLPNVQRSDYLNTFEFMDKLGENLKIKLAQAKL
T1 sequence (O75874 whole entry R132H): as above

IC50 [1] [nM]	IC50 [2] [nM]	Compound
22.8	71.6	Cc1cc(N2C(=O)OC[C@@H]2C2CC2)nc(N[C@@H](C)c2cc(-c3ccc(Cl)cc3)on2)n1 [Example 10, (S)-3-(2-(((S)-1-(5-(4-chlorophenyl)isoxazol-3-yl)ethyl)amino)-6-methylpyrimidin-4-yl)-4-cyclopropyloxazolidin-2-one]
76.7	35.9	Cc1cc(N2C(=O)OC[C@@H]2C2CC2)nc(N[C@@H](C)c2cn(-c3ccc(Cl)cc3)nn2)n1 [Example 11, (S)-3-(2-(((S)-1-(1-(4-chlorophenyl)-1H-1,2,3-triazol-4-yl)ethyl)amino)-6-methylpyrimidin-4-yl)-4-cyclopropyloxazolidin-2-one]
